The subject of assay [1] is Rattus norvegicus. The assay can be described thus: Anti-inflammatory activity against Carrageenan-induced paw edema in Wistar rat at 5 mg/kg, po pretreated for 30 mins followed by carrageenan addition after 4 hrs by Plethysmometric analysis relative to control. The conditions noted are these: time 4.5 hrs. The assay is classed as functional.
In assay [2] the target is T1, Prostaglandin G/H synthase 1 (Ovis aries, UniProt P05979).
T1 sequence (P05979 whole entry): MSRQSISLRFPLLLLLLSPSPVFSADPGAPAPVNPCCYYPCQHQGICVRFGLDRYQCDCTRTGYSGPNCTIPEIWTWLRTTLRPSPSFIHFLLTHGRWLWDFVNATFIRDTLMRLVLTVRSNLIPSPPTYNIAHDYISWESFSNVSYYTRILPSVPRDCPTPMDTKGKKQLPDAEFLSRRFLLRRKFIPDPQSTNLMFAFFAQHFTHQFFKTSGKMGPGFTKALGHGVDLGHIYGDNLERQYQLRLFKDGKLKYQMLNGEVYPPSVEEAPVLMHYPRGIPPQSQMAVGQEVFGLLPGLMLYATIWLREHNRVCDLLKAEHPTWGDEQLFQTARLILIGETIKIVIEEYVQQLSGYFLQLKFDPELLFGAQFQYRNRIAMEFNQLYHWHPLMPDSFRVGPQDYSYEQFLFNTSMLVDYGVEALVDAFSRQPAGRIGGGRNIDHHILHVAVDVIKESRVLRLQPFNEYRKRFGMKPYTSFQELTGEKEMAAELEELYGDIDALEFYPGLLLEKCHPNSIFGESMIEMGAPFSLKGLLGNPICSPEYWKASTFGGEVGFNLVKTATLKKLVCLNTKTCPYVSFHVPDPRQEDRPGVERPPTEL
The assay can be described thus: Inhibition of ovine COX-1 preincubated for 10 mins followed by arachidonic acid addition for 2 mins.

The nature of assay [3]: Inhibition of mouse full-length GST-tagged BRAF V600E mutant incubated for 1 hrs.
The target in assay [4] is Epidermal growth factor receptor (Homo sapiens, UniProt P00533). Kind of assay: Inhibition of recombinant EGFR (unknown origin) expressed in baculovirus incubated for 10 mins by europium-labeled antiphosphotyrosine/enhancement solution based assay.
Assay [5] deals with Rattus norvegicus. Kind of assay: Anti-inflammatory activity against formalin-induced foot paw edema in Wistar rat assessed as oedema inhibition at 10 mg/kg,po measured for 1 to 3 hrs by plethysmometric analysis relative to control. In kind it is functional. The conditions noted are these: time 1-3 hrs.
Assay [6] concerns Mus musculus. Kind of assay: Analgesic activity in hot plate induced thermal pain Swiss albino mouse model assessed as change in latency at 10 mg/kg, po measured at 1 to 2 hrs relative to control. In kind it is functional. The conditions noted are these: time 1-2 hrs.
In assay [7] the target is T2, Prostaglandin G/H synthase 2 (Homo sapiens, UniProt P35354).
T2 sequence (P35354 whole entry): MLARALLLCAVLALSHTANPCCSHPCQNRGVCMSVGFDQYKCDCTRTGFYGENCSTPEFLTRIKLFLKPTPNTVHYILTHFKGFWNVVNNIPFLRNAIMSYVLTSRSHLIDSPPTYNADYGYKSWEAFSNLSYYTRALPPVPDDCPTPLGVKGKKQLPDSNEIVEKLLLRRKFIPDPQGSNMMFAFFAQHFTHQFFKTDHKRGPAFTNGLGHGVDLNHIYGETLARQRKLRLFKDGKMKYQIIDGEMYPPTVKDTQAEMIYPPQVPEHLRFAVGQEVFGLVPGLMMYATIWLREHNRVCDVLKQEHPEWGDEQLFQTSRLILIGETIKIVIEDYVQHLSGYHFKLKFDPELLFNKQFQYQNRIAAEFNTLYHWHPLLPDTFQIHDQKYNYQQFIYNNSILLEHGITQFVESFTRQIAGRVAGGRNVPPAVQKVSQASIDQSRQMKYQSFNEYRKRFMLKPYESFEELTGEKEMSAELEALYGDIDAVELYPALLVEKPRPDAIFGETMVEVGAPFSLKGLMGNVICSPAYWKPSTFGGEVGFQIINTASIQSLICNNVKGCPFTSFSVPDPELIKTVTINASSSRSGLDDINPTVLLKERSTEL
Kind of assay: Inhibition of human recombinant COX-2.

Assay [8] concerns Mus musculus. Kind of assay: Anti-inflammatory activity against Carrageenan-induced paw edema in Swiss albino mouse assessed as change in paw volume at 10 mg/kg, PO measured for 3 to 6 hrs by plethysmometric analysis relative to control. The conditions noted are these: time 3-6 hrs. The assay is classed as functional. A general note: Carrageenan injected into the paw causes an acute inflammation.

Assay [9] relates to Rattus norvegicus. Kind of assay: Anti-inflammatory activity against carrageenan-induced paw edema in PO dosed Wistar albino rat measured after 2 hrs. The assay is classed as functional.
Assay [10] has as its system Rattus norvegicus. Kind of assay: Anti-inflammatory activity against carrageenan-induced paw edema in rat relative to control. In kind it is functional.
Assay [11] deals with Rattus norvegicus. The assay can be described thus: Anti-inflammatory activity against carrageenan-induced paw edema in rat.

Sequence of Epidermal growth factor receptor (P00533 whole entry): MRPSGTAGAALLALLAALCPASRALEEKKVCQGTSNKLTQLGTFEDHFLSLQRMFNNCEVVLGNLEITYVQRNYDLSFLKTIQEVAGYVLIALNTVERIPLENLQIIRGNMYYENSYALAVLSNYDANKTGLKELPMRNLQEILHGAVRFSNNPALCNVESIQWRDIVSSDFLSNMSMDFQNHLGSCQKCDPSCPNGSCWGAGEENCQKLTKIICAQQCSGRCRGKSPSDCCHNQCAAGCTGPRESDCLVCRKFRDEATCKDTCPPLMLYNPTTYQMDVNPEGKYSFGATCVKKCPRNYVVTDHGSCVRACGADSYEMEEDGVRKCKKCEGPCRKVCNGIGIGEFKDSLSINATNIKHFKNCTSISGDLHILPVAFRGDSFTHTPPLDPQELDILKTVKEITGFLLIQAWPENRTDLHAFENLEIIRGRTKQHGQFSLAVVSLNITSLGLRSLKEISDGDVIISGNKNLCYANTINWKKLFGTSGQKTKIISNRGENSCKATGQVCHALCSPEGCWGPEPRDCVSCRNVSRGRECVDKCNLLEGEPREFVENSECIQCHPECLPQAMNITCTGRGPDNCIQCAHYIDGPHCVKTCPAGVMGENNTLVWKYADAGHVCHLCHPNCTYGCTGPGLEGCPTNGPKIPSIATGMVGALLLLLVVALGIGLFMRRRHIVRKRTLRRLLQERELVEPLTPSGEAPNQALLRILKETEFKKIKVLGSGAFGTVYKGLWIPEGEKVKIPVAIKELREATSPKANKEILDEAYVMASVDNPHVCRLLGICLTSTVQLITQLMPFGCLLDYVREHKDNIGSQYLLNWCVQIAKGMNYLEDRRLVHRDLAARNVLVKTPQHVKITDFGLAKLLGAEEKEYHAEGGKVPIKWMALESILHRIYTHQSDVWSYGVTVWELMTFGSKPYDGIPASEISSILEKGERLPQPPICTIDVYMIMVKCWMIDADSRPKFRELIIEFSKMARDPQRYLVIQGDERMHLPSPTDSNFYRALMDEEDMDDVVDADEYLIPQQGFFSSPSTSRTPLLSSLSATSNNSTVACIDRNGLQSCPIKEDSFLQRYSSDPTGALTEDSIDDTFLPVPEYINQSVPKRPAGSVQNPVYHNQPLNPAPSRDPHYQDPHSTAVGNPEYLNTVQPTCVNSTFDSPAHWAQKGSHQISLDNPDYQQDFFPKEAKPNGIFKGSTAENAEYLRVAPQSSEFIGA

By inhibition in vivo is commonly meant the drop in the measured response relative to a control, in per cent. With `COc1ccc(-c2cc(-c3ccccc3)nn2CC(=O)Nc2ccc(S(N)(=O)=O)cc2)cc1`, the inhibition in vivo at 5 mg/kg in [1] is 81%.

In general, IC50 refers to the concentration at which inhibition is half-maximal. For `CC1=NN(c2cccc(Cl)c2)C(=O)/C1=C\c1cn(-c2nc(N3CCOCC3)nc(N3CCOCC3)n2)c2ccccc12`, half-maximal inhibition in assay [2] (IC50) required 20 µM.

As to `Cc1ccc(/C=N/NC(=O)CNc2nc(-c3ccccc3)c(-c3ccccc3)s2)cc1`, the IC50 came out at 1.7 µM in assay [3] and 0.2 µM in assay [4].

As for `COc1ccc(/C=C/C(=O)c2cccc(N3C(=O)c4ccccc4C3=O)c2)cc1OC`, the inhibition in vivo at 10 mg/kg worked out at 45% in [5] and 45.8% in assay [6].

Regarding `COc1ccc(/C=C/C(=O)c2cc(-n3cc(CN4C(=O)C(=O)c5ccccc54)nn3)ccc2O)cc1`, the IC50 in [7] was 0.037 µM.

For orientation: ED50 means the midpoint of the dose-response relation. Read a low ED50 as greater potency. For `Cc1ccc(-c2cc(C(F)(F)F)nn2-c2ccc(S(N)(=O)=O)cc2)cc1` [CELECOXIB], the Activity worked out at 32% in assay [8] and 83.4% in assay [10]. Also, the 50% effective dose (ED50) in assay [9] turned out to be 32 µmol/kg; in [11] it was 34.1 mg/kg.

Values taken from ChEMBL document CHEMBL5096183, “Contemporary advances of cyclic molecules proposed for inflammation” (Eur J Med Chem, 2021).
